Assay results as given in patent US20030186967A1, “Acylresorcinol derivatives are selective vitronectin receptor inhibitors” (American Home Products Corporation, priority 1998, published 2003).

Each molecule was assayed against T1, Vitronectin receptor αVβ3 (Homo sapiens, UniProt P05106+P06756) (assay: Vitronectin Receptor αVβ3 Binding Assay). Conditions: read-out: VnR (IC50μM).
T1 construct: expressed in transfected cells; host or cells: 512P5 cells (plasma membrane preparation)
T1 sequence (P06756 31-889 limits assumed): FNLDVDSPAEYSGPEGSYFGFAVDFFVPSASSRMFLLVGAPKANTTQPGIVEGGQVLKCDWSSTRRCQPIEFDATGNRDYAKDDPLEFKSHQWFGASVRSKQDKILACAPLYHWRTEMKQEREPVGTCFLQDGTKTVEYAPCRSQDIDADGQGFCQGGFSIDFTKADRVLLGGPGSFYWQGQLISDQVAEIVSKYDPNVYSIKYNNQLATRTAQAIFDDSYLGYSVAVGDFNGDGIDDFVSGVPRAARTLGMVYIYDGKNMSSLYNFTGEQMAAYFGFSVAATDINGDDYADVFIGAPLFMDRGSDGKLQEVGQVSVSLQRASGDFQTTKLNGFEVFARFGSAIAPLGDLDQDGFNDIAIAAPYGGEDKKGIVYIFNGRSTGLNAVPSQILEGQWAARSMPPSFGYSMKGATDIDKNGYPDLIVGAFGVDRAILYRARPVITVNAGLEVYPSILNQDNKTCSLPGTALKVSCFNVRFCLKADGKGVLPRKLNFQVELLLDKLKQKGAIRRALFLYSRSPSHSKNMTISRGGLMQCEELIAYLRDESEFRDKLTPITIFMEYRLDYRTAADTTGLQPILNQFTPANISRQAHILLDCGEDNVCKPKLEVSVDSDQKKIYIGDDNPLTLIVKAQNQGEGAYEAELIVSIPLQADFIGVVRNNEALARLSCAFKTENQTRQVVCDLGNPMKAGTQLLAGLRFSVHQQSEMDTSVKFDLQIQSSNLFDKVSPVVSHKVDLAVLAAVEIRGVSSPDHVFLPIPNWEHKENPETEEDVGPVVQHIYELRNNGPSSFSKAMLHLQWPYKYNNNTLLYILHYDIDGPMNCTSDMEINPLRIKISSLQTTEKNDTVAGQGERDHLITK
T1 sequence (P06756 891-1048 partner limits assumed): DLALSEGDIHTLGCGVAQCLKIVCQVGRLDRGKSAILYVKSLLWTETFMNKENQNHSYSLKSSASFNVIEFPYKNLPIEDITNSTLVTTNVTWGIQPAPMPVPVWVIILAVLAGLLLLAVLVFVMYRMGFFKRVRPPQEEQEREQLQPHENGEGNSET
T1 sequence (P05106 27-788): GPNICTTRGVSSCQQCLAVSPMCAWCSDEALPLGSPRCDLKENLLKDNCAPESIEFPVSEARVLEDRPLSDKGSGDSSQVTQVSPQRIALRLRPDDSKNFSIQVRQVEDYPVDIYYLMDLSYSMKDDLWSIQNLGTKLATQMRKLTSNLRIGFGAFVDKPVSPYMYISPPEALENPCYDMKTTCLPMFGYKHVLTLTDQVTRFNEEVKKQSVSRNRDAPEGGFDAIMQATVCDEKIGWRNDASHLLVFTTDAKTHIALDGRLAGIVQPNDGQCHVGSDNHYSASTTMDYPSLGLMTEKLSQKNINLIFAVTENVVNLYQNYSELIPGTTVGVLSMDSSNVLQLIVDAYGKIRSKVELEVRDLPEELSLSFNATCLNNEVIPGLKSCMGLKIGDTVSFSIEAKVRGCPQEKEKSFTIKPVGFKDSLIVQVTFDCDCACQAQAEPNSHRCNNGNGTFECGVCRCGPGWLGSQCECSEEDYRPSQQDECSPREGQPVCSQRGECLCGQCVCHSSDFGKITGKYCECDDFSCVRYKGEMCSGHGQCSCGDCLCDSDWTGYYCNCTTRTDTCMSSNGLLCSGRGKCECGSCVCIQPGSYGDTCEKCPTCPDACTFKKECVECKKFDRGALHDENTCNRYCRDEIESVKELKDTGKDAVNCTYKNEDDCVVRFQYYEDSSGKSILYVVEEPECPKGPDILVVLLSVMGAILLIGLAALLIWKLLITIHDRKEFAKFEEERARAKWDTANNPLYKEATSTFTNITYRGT

| Molecule | IC50 [µM] |
| --- | --- |
| Cc1ccc(NC(=O)N[C@@H](CNC(=O)c2ccc(OCCNC(=N)N)cc2O)C(=O)O)cc1 [Example 178, (2S)-3-{[4-(2-{[amino(imino)methyl]amino}ethoxy)-2-hydroxybenzoyl]amino}-2-[(4-toluidinocarbonyl)amino]propanoic acid] | 3.13 |
| O=C(Nc1ccccc1)N[C@@H](CNC(=O)c1ccc(OCCNc2ncccn2)cc1O)C(=O)O [Example 71, (2S)-2-[(anilinocarbonyl)amino]-3-({2-hydroxy-4-[2-(pyrimidin-2-ylamino)ethoxy]-benzoyl}amino)propanoic acid] | > 1 |
| N=C(N)NCCOc1ccc(C(=O)NC[C@H](NC(=O)Cc2ccccc2)C(=O)O)c(O)c1 [Example 199, (2S)-3-{[4-(2-{[amino(imino)methyl]amino}ethoxy)-2-hydroxybenzoyl]amino}-2-[(2-phenylacetyl)amino]propanoic acid] | 14.7 |
| O=C(Nc1cccc2ccccc12)N[C@@H](CNC(=O)c1ccc(OCCNC2=NCCCN2)cc1O)C(=O)O [Example 31, (2S)-3-({2-hydroxy-4-[2-(1,4,5,6-tetrahydropyrimidin-2-ylamino)ethoxy]benzoyl}-amino)-2-{[(1-naphthylamino)carbonyl]amino}propanoic acid] | 0.261 |
| O=C(Nc1ccccc1Br)N[C@@H](CNC(=O)c1ccc(OCCNc2ncccn2)cc1O)C(=O)O [Example 81, (2S)-2-{[(2-bromoanilino)carbonyl]amino}-3-({2-hydroxy-4-[2-(pyrimidin-2-ylamino)ethoxy]benzoyl}amino)propanoic acid] | > 1 |
| CC(C)C(=O)N[C@@H](CNC(=O)c1ccc(OCCNC(=N)N)cc1O)C(=O)O [Example 190, (2S)-3-{[4-(2-{[amino(imino)methyl]amino}ethoxy)-2-hydroxybenzoyl]amino}-2-(isobutyrylamino)propanoic acid] | > 1 |
| N=C(N)NCCOc1ccc(C(=O)NC[C@H](NC(=O)Nc2cccc3ccccc23)C(=O)O)c(O)c1 [Example 184, (2S)-3-{[4-(2-{[amino(imino)methyl]amino}ethoxy)-2-hydroxybenzoyl]amino}-2-{[(1-naphthylamino)carbonyl]amino}propanoic acid] | 17.9 |
| O=C(N[C@@H](CNC(=O)c1ccc(OCCNC2=NCCN2)cc1O)C(=O)O)c1ccc(Br)cc1 [Example 139, (2S)-2-[(4-bromobenzoyl)amino]-3-({4-[2-(4,5-dihydro-1H-imidazol-2-ylamino)ethoxy]-2-hydroxybenzoyl}amino)propanoic acid] | > 1 |
| Cc1ccccc1NC(=O)N[C@@H](CNC(=O)c1ccc(OCCNc2ncccn2)cc1O)C(=O)O [Example 78, (2S)-3-({2-hydroxy-4-[2-(pyrimidin-2-ylamino)ethoxy]benzoyl}amino)-2-[(2-toluidinocarbonyl)amino]propanoic acid] | > 1 |
| Cc1cccc(C(=O)N[C@@H](CNC(=O)c2ccc(OCCNC3=NCCN3)cc2O)C(=O)O)c1C [Example 140, (2S)-3-({4-[2-(4,5-dihydro-1H-imidazol-2-ylamino)ethoxy]-2-hydroxybenzoyl}-amino)-2-[(2,3-dimethylbenzoyl)amino]propanoic acid] | 0.0978 |
| CC(C)(C)COC(=O)N[C@@H](CNC(=O)c1ccc(OCCNC2=NCCN2)cc1O)C(=O)O [Example 95] | 0.105 |
| N=C(N)NCCOc1ccc(C(=O)NC[C@H](NC(=O)C2CCCCC2)C(=O)O)c(O)c1 [Example 198, (2S)-3-{[4-(2-{[amino(imino)methyl]amino}ethoxy)-2-hydroxybenzoyl]amino}-2-[(cyclohexylcarbonyl)amino]propanoic acid] | > 1 |
| COc1ccc(NC(=O)N[C@@H](CNC(=O)c2ccc(OCCNC(=N)N)cc2O)C(=O)O)cc1 [Example 188] | 12.1 |
| O=C(NC1CCCCC1)N[C@@H](CNC(=O)c1ccc(OCCNc2ncccn2)cc1O)C(=O)O [Example 90, (2S)-2-{[(cyclohexylamino)carbonyl]amino}-3-({2-hydroxy-4-[2-(pyrimidin-2-ylamino)ethoxy]benzoyl}amino)propanoic acid] | > 1 |
| (2S)-3-({2-hydroxy-4-[2-(pyrimidin-2-ylamino)ethoxy]benzoyl}amino)-2-{[1-naphthylamino)carbonyl]amino}propanoic acid [Example 91] | > 1 |
| CC(C)(C)COC(=O)N[C@@H](CNC(=O)c1ccc(OCCNC(=N)N)cc1O)C(=O)O [Example 156, (2S)-3-{[4-(2-{[amino(imino)methyl]amino}ethoxy)-2-hydroxy-benzoyl]amino}-2-{[(neopentyloxy)carbonyl]amino}propanoic acid] | 0.25 |
| O=C(N[C@@H](CNC(=O)c1ccc(OCCNC2=NCCCCC2)cc1O)C(=O)O)OCC(Cl)(Cl)Cl [Example 153, (2S)-3-({2-hydroxy-4-[2-(3,4,5,6-tetrahydro-2H-azepin-7-ylamino)ethoxy]benzoyl}-amino)-2-{[(2,2,2-trichloroethoxy)carbonyl]amino}propanoic acid] | 2.4 |
| N=C(N)NCCOc1ccc(C(=O)NC[C@H](NC(=O)Nc2ccccc2Br)C(=O)O)c(O)c1 [Example 176, (2S)-3-{[4-(2-{[amino(imino)methyl]amino}ethoxy)-2-hydroxybenzoyl]amino}-2-{[(2-bromoanilino)carbonyl]amino}propanoic acid] | 2.14 |
| COC(=O)N[C@@H](CNC(=O)c1ccc(OCCNc2ncccn2)cc1O)C(=O)O [Example 65, (2S)-3-({2-hydroxy-4-[2-(pyrimidin-2-ylamino)ethoxy]benzoyl}amino)-2-[(methoxycarbonyl)amino]propanoic acid] | 100 |
| C=CCOC(=O)N[C@@H](CNC(=O)c1ccc(OCCNC2=NCCCN2)cc1O)C(=O)O [Example 6, (2S)-2-{[(allyloxy)carbonyl]amino}-3-({2-hydroxy-4-[2-(1,4,5,6-tetrahydropyrimidin-2-ylamino)ethoxy]benzoyl}amino)propanoic acid] | 0.108 |

Further lines, results first:

| IC50 [µM] | Molecule |
| --- | --- |
| > 1 | Cc1cc(C(=O)N[C@@H](CNC(=O)c2ccc(OCCNC(=N)N)cc2O)C(=O)O)c(C)o1 [Example 211, (2S)-3-{[4-(2-{[amino(imino)methyl]amino}ethoxy)-2-hydroxybenzoyl]amino}-2-[(2,5-dimethyl-3-furoyl)amino]propanoic acid] |
| 9.08 | CCCCCCCCOC(=O)N[C@@H](CNC(=O)c1ccc(OCCNC(=O)NCc2ccncc2)cc1O)C(=O)O [Example 256, (2S)-3-({2-hydroxy-4-[2-({[(pyridin-4-ylmethyl)amino]carbonyl}-amino)ethoxy]-benzoyl}amino)-2-{[(octyloxy)carbonyl]amino}propanoic acid] |
| 8.7 | COC(=O)N[C@@H](CNC(=O)c1ccc(OCCNC(=O)NCc2cccnc2)cc1O)C(=O)O [Example 234, (2S)-3-({2-hydroxy-4-[2-({[(pyridin-3-ylmethyl)amino]carbonyl}-amino)ethoxy]-benzoyl}amino)-2-[(methoxycarbonyl)amino]propanoic acid] |
| 5.5 | CCCOC(=O)N[C@@H](CNC(=O)c1ccc(OCCNC(=O)NCc2ccccc2)cc1O)C(=O)O [Example 223, (2S)-3-{[4-(2-{[(benzylamino)carbonyl]amino}ethoxy)-2-hydroxybenzoyl]amino}-2-[(propoxycarbonyl)amino]propanoic acid] |
| 5.1 | C#CCOC(=O)N[C@@H](CNC(=O)c1ccc(OCCNC(=O)NCc2ccccc2)cc1O)C(=O)O [Example 227, (2S)-3-{[4-(2-{[(benzylamino)carbonyl]amino}ethoxy)-2-hydroxybenzoyl]amino}-2-{[(prop-2-ynyloxy)carbonyl]amino}propanoic acid] |
| 12.9 | NS(=O)(=O)c1ccc(CNC(=O)NCCOc2ccc(C(=O)NC[C@H](NC(=O)OCc3ccccc3)C(=O)O)c(O)c2)cc1 [Example 265, (2S)-3-[(4-{2-[({[4-(aminosulfonyl)benzyl]amino}carbonyl)amino]ethoxy}-2-hydroxybenzoyl)amino]-2-{[(benzyloxy)carbonyl]amino}propanoic acid] |
| > 1 | N=C(N)NCCOc1ccc(C(=O)NC[C@H](NC(=O)/C=C/c2ccccc2)C(=O)O)c(O)c1 [Example 202, (2S)-3-{[4-(2-{[amino(imino)methyl]amino}ethoxy)-2-hydroxybenzoyl]amino}-2-{[(E)-3-phenylprop-2-enoyl]amino}propanoic acid] |
| 10.2 | CCCCCCOC(=O)N[C@@H](CNC(=O)c1ccc(OCCNC(=O)NCc2ccccc2)cc1O)C(=O)O [Example 228, (2S)-3-{[4-(2-{[(benzylamino)carbonyl]amino}ethoxy)-2-hydroxybenzoyl]amino}-2-{[(hexyloxy)carbonyl]amino}propanoic acid] |
| 4 | O=C(NCCOc1ccc(C(=O)NC[C@H](NC(=O)OCC(Cl)(Cl)Cl)C(=O)O)c(O)c1)NCc1ccccc1 [Example 230, (2S)-3-{[4-(2-{[(benzylamino)carbonyl]amino}ethoxy)-2-hydroxybenzoyl]amino}-2-{[(2,2,2-trichloroethoxy)carbonyl]amino}propanoic acid] |
| > 1 | COc1ccc(C(=O)N[C@@H](CNC(=O)c2ccc(OCCNC(=N)N)cc2O)C(=O)O)cc1 [Example 208, (2S)-3-{[4-(2-{[amino(imino)methyl]amino}ethoxy)-2-hydroxybenzoyl]amino-}-2-[(4-methoxybenzoyl)amino]propanoic acid] |
| 1.26 | CC(C)(C)COC(=O)N[C@@H](CNC(=O)c1ccc(OCCNC(=O)NCc2ccncc2)cc1O)C(=O)O [Example 257, (2S)-3-({2-hydroxy-4-[2-({[(pyridin-4-ylmethyl)amino]carbonyl}-amino)ethoxy]-benzoyl}amino)-2-{[(neopentyloxy)carbonyl]amino}propanoic acid] |
| 5.2 | C=CCCOC(=O)N[C@@H](CNC(=O)c1ccc(OCCNC(=O)NCc2ccccc2)cc1O)C(=O)O [Example 226, (2S)-3-{[4-(2-{[(benzylamino)carbonyl]amino}ethoxy)-2-hydroxybenzoyl]amino}-2-{[(but-3-enyloxy)carbonyl]amino}propanoic acid] |
| > 1 | N=C(N)NCCOc1ccc(C(=O)NC[C@H](NC(=O)CCc2ccccc2)C(=O)O)c(O)c1 [Example 200, (2S)-3-{[4-(2-{[amino(imino)methyl]amino}ethoxy)-2-hydroxybenzoyl]amino}-2-[(3-phenylpropanoyl)amino]propanoic acid] |
